The values below come from patent publication US7662842B2, “Thiazolidinone amides, thiazolidine carboxylic acid amides, and serine amides, including polyamine conjugates thereof, as selective anti-cancer agents” (Ohio State Univesity Research Foundation, priority 2003, dated 2010).

Where a name gives a salt, the structure may show the parent alone. Read-outs that look alike come from different tables or passages of the source.

One data set deals with SKMEL-188 melanoma cells. Nature of the data set: Sulforhodamine B assay in melanoma cells, SKMEL-188. It counts as cell-based. The note with it: SRB assay, 48 h incubation, melanoma cell line. As for the experimental part:
(§1) SKMEL-188 cells were cultured in Ham's F10 medium (Gibco Invitrogen, Inc., Grand Island, N.Y.) plus 5% fetal bovine serum (Cellgro Mediatech, Inc., Herndon, Va.) and 1% antibiotic/antimycotic mixture (Sigma-Aldrich, Inc., St. Louis, Mo.). WM-164 cells (gift of Dr. Meenhard Herlyn, Wistar Inst., Philadelphia, Pa.) and human dermal fibroblasts (Cascade Biologics, Inc., Portland, Oreg.) were cultured in DMEM medium (Cellgro Mediatech, Inc.) supplemented with 5% fetal bovine serum, 1% antibiotic.antimycotic mixture and bovine insulin ([…], Sigma-Aldrich, Inc.). Human dermal fibroblasts were used as a control to examine the effects of compounds on stromal environment. Thus, the effect of the various compounds on melanoma cells versus fibroblasts would document their potential selectivity.
(§2) Sulforhodamine B Assay: Cells were seeded into 96-well plates at 5000 cells/well. After 12 hours, media were changed and serial dilutions of compounds were added. Cells were incubated with each compound for 48 hours. Fresh media containing the test compound were changed ever 24 hours. Thereafter, total cell protein corresponding to cell numbers (both viable and non-viable cells) were measured using the sulforhodamine B (SRB) assay according to manufacturer's protocol (Sigma-Aldrich, Inc.) (Rubinstein et al., “Comparison of in vitro Anticancer Drug-screening Data Generated with a Tetrazolium Assay Versus a Protein Assay Against a Diverse Panel of Human Tumor Cell Lines,” J. Natl. Cancer Inst. 82:1113-1118 (1990); Dothager et al., “Synthesis and Identification of Small Molecules that Potently Induce Apoptosis in Melanoma Cells Through GI Cell Cycle Arrest,” J. Am. Chem. Soc. 127:8686-8696 (2005), each of which is hereby incorporated by reference in its entirety). Briefly, cells were fixed with trichloracetic acid, washed and incubated with sulforhodamine B for 30 minutes. After another wash, dye incorporated into the cells was solubilized and measured using a plate reader at 565 nm.
(§3) Statistical Analysis: Data is presented as mean±SEM (n=6-8). […] Statistical analyses were performed with Student's t-test (*p<0.05; **p<0.005).
(§4) DTIC and Taxol were assayed in the same way for comparison and served as internal quality controls in the different batches of assay. For comparison, the activities of 5R and 5S were measured.
Background: In SRB staining, fixed cells bind dye roughly in proportion to their protein.

A further data set concerns WM-164 cells. Kind of data set: Sulforhodamine B assay in melanoma cells, WM-164. The note with it: SRB assay, 48 h incubation, melanoma cell line. It counts as cell-based. As for the experimental part:
as §1, §2, §3, §4

Another data set has as its system human dermal fibroblasts. Kind of data set: Sulforhodamine B assay, fibroblast control cells. In kind it is cell-based. The note with it: SRB assay, 48 h incubation. As for the experimental part:
as §1, §2, §3, §4

Data set [1] relates to human breast cancer cell line (MCF-7). Nature of the data set: SRB cytotoxicity assay, MCF-7. In kind it is cell-based. As for the experimental part: (§5) For in vitro cytotoxicity screening, 1000 to 5000 cells were plated into each well of 96-well plates depending on growth rate, and exposed to different concentrations of a test compound for 96 h in three to five replicates. All the compounds were dissolved in dimethyl sulfoxide at 5 to 20 mM, and diluted to desired concentrations in complete culture medium. Cell numbers at the end of the drug treatment were measured by the SRB assay (Gududuru et al., “Synthesis and Biological Evaluation of Novel Cytotoxic Phospholipids for Prostate Cancer,” Bioorg. Med. Chem. Lett. 14:4919-4923 (2004); Rubinstein et al., “Comparison of in vitro Anticancer-Drug-Screening Data Generated with a Tetrazolium Assay Versus a Protein Assay Against a Diverse Panel of Human Tumor Cell Lines,” J. Natl. Cancer Inst. 82:1113-1118 (1990), each of which is hereby incorporated by reference in its entirety). Briefly, the cells were fixed with 10% of trichloroacetic acid, stained with 0.4% SRB, and the absorbances at 540 nm was measured using a plate reader (DYNEX Technologies, Chantilly, Va.). […] A sandwich ELISA (Roche, Mannheim, Germany) utilizing monoclonal antibodies specific for DNA and histones was used to quantify degree of apoptosis induced by the analogs after 72 h exposure. This assay measures DNA-histone complexes (mono- and oligonucleosomes) released into cytoplasm from the nucleus during apoptosis.
In vitro cytotoxicity assay was performed by the same sulforhodamine B (SRB) assay (described above). The compounds shown in Table 8 below where tested for activity against the breast cancer and ovarian cancer cell lines.
RH7777 and CV-1 cells were used as negative controls and MCF-7 cell line (breast cancer) was included to examine the selectivity.

Data set [2] relates to PPC-1 human prostate cancer cells. Nature of the data set: SRB cytotoxicity assay, PPC-1. In kind it is cell-based. The conditions noted are these: prostate cancer cell line. As for the experimental part: (§6) Dr. Mitchell Steiner at University of Tennessee Health Science Center, kindly provided PPC-1 and TSU-Pr1 cells.
as §5

The subject of data set [3] is PC-3 human prostate cancer cells. Kind of data set: SRB cytotoxicity assay, PC-3. The note with it: 96 h exposure, prostate cancer cell line. In kind it is cell-based. As for the experimental part: as §5
Data set [4] relates to RH7777 rat hepatoma cells. Nature of the data set: SRB cytotoxicity assay, RH7777 control cell line. In kind it is cell-based. The note with it: SRB assay, 96 h exposure, control cell line. Here is the method: as §5
In data set [5] the test system is DU-145 human prostate cancer cells. Nature of the data set: SRB cytotoxicity assay, DU-145. It counts as cell-based. As for the experimental part: as §5
Data set [6] has as its system LNCaP human prostate cancer cells. Nature of the data set: SRB cytotoxicity assay, LNCaP. It counts as cell-based. The note with it: 96 h exposure, prostate cancer cell line. Here is the method:
as §5

Data set [7] concerns TSU-Pr1 human prostate cancer cells. Kind of data set: SRB cytotoxicity assay, TSU-Pr1. In kind it is cell-based. The conditions noted are these: prostate cancer cell line. Here is the method:
as §6, §5

The test system of the next data set is CV-1 cells. Nature of the data set: SRB cytotoxicity assay, CV-1 control cell line. In kind it is cell-based. As for the experimental part:
For in vitro cytotoxicity screening, 1000 to 5000 cells were plated into each well of 96-well plates depending on growth rate, and exposed to different concentrations of a test compound for 96 h in three to five replicates. All the compounds were dissolved in dimethyl sulfoxide at 5 to 20 mM, and diluted to desired concentrations in complete culture medium. Cell numbers at the end of the drug treatment were measured by the SRB assay (Gududuru et al., “Synthesis and Biological Evaluation of Novel Cytotoxic Phospholipids for Prostate Cancer,” Bioorg. Med. Chem. Lett. 14:4919-4923 (2004); Rubinstein et al., “Comparison of in vitro Anticancer-Drug-Screening Data Generated with a Tetrazolium Assay Versus a Protein Assay Against a Diverse Panel of Human Tumor Cell Lines,” J. Natl. Cancer Inst. 82:1113-1118 (1990), each of which is hereby incorporated by reference in its entirety). Briefly, the cells were fixed with 10% of trichloroacetic acid, stained with 0.4% SRB, and the absorbances at 540 nm was measured using a plate reader (DYNEX Technologies, Chantilly, Va.). […] A sandwich ELISA (Roche, Mannheim, Germany) utilizing monoclonal antibodies specific for DNA and histones was used to quantify degree of apoptosis induced by the analogs after 72 h exposure. This assay measures DNA-histone complexes (mono- and oligonucleosomes) released into cytoplasm from the nucleus during apoptosis. RH7777 cells were employed because of nonspecific cytotoxicity of compound 4 in receptor-negative cells as well as receptor-positive prostate cancer cells.
RH7777 and CV-1 cells were used as negative controls and MCF-7 cell line (breast cancer) was included to examine the selectivity. 5-Fluorouracil was used as reference drug.

Where [8] appears, read: Homo sapiens, WM164, read-out: IC50 WM-164.
Where [9] appears, read: Homo sapiens, PPC-1, 96 h exposure.

On to `CCCCCCCCCCCCCCOCCCNCCCNC(=O)[C@@H](CO)NC(=O)OC(C)(C)C`, for which the IC50 with SKMEL-188 melanoma cells (SK-MEL-188, 48 h) was 3.8 µM; in the data set with WM-164 cells (setting [8]) it was 3.3 µM; in the data set with human dermal fibroblasts (Homo sapiens, Fibroblast, 48 h), 3.4 µM.
Compound `CCCCCCCCCCCCCCCCCCNC(=O)C1CSC(c2ccoc2)N1` (centres unmarked) (as salt: hydrochloride) [Compound 12, 2-(furan-3-yl)-N-octadecylthiazolidine-4-carboxamide] displayed a melting point of 99 °C.
Same read-out and setting: as for `CCCCCCCCCCCCCCCCCCNC(=O)[C@@H]1CSC(CCCCCCCCCCCC)N1` (mixture of isomers) [Compound 7, (2RS, 4R)-2-Dodecylthiazolidine-4-carboxylic acid octadecylamide], the figure is 86 °C.
For `CCCCCCCCCCCCCCCCCCNC(=O)[C@@H]1CSC(C2CCCCC2)N1` (mixture of isomers) [Compound 8, (2RS, 4R)-2-Cyclohexylthiazolidine-4-carboxylic acid octadecylamide], the IC50 in the data set on WM-164 cells (setting [8]) is above 50 µM.
In turn, `CCCCCCCCCCCCCCCCCCNC(=O)[C@@H]1CSC(c2c[nH]c3ccccc23)N1` (mixture of isomers) [Compound 10, (2RS, 4R)-2-(1H-Indol-3yl)-thiazolidine-4-carboxylic acid octadecylamide] registered an IC50 in data set [1] (Homo sapiens, MCF7, SRB assay) of 10.6 µM.
The compound `CCCCCCCCCCCCCCCCCCNC(=O)[C@@H]1CSC(c2ccc(OC)cc2)N1.Cl` (mixture of isomers) [Compound 15, (2RS, 4R)-2-(4-Methoxy-phenyl)-thiazolidine-4-carboxylic acid octadecylamide Hydrochloride] came in with a melting point of 95 °C. The compound also returned a half-maximal inhibitory concentration (IC50) with SKMEL-188 melanoma cells (SK-MEL-188, 48 h) of 9.7 µM. In addition, the IC50 in the data set with WM-164 cells (setting [8]) was 13.1 µM. In addition, in the data set on human dermal fibroblasts (Homo sapiens, Fibroblast, 48 h), the half-inhibitory concentration (IC50) turned out to be 28 µM.
As for `CCCCCCCCCCCCCCCCCCNC(=O)[C@@H]1CSC(c2cc(OC)c(OC)c(OC)c2)N1.Cl` (mixture of isomers) [Compound 17, (2RS, 4R)-2-(3,4,5-Trimethoxy-phenyl)-thiazolidine-4-carboxylic acid octadecylamide Hydrochloride], the melting point came to 115 °C. For the same compound, the IC50 in data set [2] (setting [9]) worked out at 0.48 µM. The midpoint of inhibition in the data set on SKMEL-188 melanoma cells (SK-MEL-188, 48 h), the IC50, lay at 1.8 µM. Further, the IC50 in the data set on WM-164 cells (setting [8]) amounted to 1.5 µM. In addition, in the data set with human dermal fibroblasts (Homo sapiens, Fibroblast, 48 h), half-maximal inhibition (IC50) was put at 5.2 µM.
Take `CCCCCCCCCCCCCCCCCCNC(=O)[C@@H]1CSC(c2ccc(NC(C)=O)cc2)N1.Cl` (mixture of isomers) [Compound 18, (2RS, 4R)-2-(4-Acetylamino-phenyl)-thiazolidine-4-carboxylic acid octadecylamide Hydrochloride]: the melting point was 170 °C. The half-maximal inhibitory concentration (IC50) in the data set on SKMEL-188 melanoma cells (SK-MEL-188, 48 h) is 2.7 µM. Further, the IC50 in the data set on WM-164 cells (setting [8]) turned out to be 5.5 µM. This compound also gave a 50% inhibitory concentration (IC50) in the data set on human dermal fibroblasts (Homo sapiens, Fibroblast, 48 h) above 10 µM.
As to `CCCCCCCCCCCCCCCCCCNC(=O)[C@@H]1CSC(c2ccc(F)cc2)N1` (mixture of isomers) [Compound 19, (2RS, 4R)-2-(4-Fluoro-phenyl)-thiazolidine-4-carboxylic acid octadecylamide], in data set [3] (Homo sapiens), the IC50 worked out at 6.8 µM.
On to `CCCCCCCCCCCCCCCCCCNC(=O)[C@@H]1CSC(c2ccc([N+](=O)[O-])cc2)N1` (mixture of isomers) [Compound 21, (2RS, 4R)-2-(4-Nitro-phenyl)-thiazolidine-4-carboxylic acid octadecylamide], for which, in data set [1] (Homo sapiens, MCF7, SRB assay), the IC50 stood at 15.3 µM.
`CCCCCCCCCCCCCCCCCCNC(=O)[C@@H]1CSC(c2ccc(C#N)cc2)N1` (mixture of isomers) [Compound 22, (2RS, 4R)-2-(4-Cyano-phenyl)-thiazolidine-4-carboxylic acid octadecylamide] yielded a melting point of 90 °C. Besides, in data set [4] (Rattus norvegicus, RH7777), the IC50 was above 20 µM. For the same compound, in data set [5] (Homo sapiens, DU-145, read-out: IC50 DU-145, 96 h exposure, prostate cancer cell line), the 50% inhibitory concentration (IC50) was above 20 µM. The IC50 in data set [6] (Homo sapiens, LNCaP) is 5.9 µM. Besides, in data set [2] (setting [9]), the IC50 was determined as 5 µM. Moreover, the 50% inhibitory concentration (IC50) in [7] (Homo sapiens, TSU-Pr1, 96 h exposure) is above 20 µM.
For `CCCCCCCCCCCCCCCCCCNC(=O)[C@@H]1CSC(c2c(Cl)cccc2Cl)N1` (mixture of isomers) [Compound 24, (2RS, 4R)-2-(2,6-Dichloro-phenyl)-thiazolidine-4-carboxylic acid octadecylamide], the melting point is 49 °C.
On the same count and under the same terms, as for `CCCCCCCCCCCCCCCCCCNC(=O)[C@@H]1CSC(c2ccc(-c3ccccc3)cc2)N1.Cl` (mixture of isomers) [Compound 27, (2RS, 4R)-2-Biphenyl-4-yl-thiazolidine-4-carboxylic acid octadecylamide Hydrochloride], the figure is 130 °C.
Turning to `COc1cc(C2NC(C(=O)NCCCNCCCCNCCCN)CS2)cc(OC)c1OC` (mixture of isomers) [Compound 224], the IC50 worked out at 71.9 µM in [4]; 5.1 µM in data set [5] (read-out: IC50 DU-145, 96 h exposure, prostate cancer cell line); 5.9 µM in [3]; 10.9 µM in data set [6]; 5 µM in data set [2] (96 h exposure); 3 µM in data set [7] (96 h exposure). Moreover, the IC50 in data set [1] (SRB assay) was above 100 µM; in the data set on CV-1 cells, 30.5 µM.
Take `CCCCCCCCCCCCCCCCCCNC[C@@H](CO)NC` [drawing 31]: the IC50 in the data set with SKMEL-188 melanoma cells (SK-MEL-188, 48 h) was determined as 3.2 µM; in the data set with WM-164 cells (setting [8]), 3.6 µM; in the data set on human dermal fibroblasts (Homo sapiens, Fibroblast, 48 h), 1.6 µM.
With `CCCCCCCCCCCCCCCCCCNC[C@@H](CO)NC` [drawing 32], the IC50 was 3.1 µM in the data set with SKMEL-188 melanoma cells, 3.6 µM with WM-164 cells (read-out: IC50 WM-164) and 2.3 µM in the data set with human dermal fibroblasts.

The term IC50 denotes the concentration that inhibits the measured activity by half. In general, melting point refers to the temperature of the solid-liquid transition.
